What was measured:
[1] = system: OVA-sensitized BALB/c mice; assay: Cellular composition of bronchoalveolar lavage fluid (eosinophil number) in mouse model of allergic asthma; type: in vivo, mouse (BALB/c)
Method: (§1) Animals. Animal care and use were performed in accordance with the guidelines of the Dutch Committee of Animal Experiments. Specific pathogen-free male BALB/c mice (5 to 6 weeks old) were purchased from Charles River (Maastricht, The Netherlands) and housed in macrolon cages in a laminar flow cabinet and provided with food and water ad libitum.
(§2) Sensitization, treatment and challenge. Mice (6 to 8 weeks old) were sensitized intraperitoneally (i.p.) on days 0 and 7 with 10 μg ovalbumin (OVA, grade V, Sigma-Aldrich) in 0.1 ml alum (Pierce, Rockford, Ill.). Two weeks after the last sensitization, the mice were divided into six groups. The sham-immunotherapy and the OVA-immunotherapy groups were treated with three s.c. injections of, respectively, 0.2 ml pyrogen-free saline (B. Braun, Melsungen, Germany) or 1 mg OVA in 0.2 ml pyrogen-free saline on alternate days. In three groups, OVA-immunotherapy was co-injected with 0.1 μg, 0.03 μg or 0.01 μg 1α,25-dihydroxyvitamin D3 (1α,25(OH)2 VitD3), a selective inhibitor of NF-κb. One group was treated with sham-immunotherapy and combined with co-injection of 0.1 μg 1α,25(OH)2 VitD3. Ten days after treatment, mice were exposed to three OVA inhalation challenges (10 mg/ml in saline) for 20 minutes every third day.
In a second series of experiments, OVA-immunotherapy, as described above, was carried out using a sub-optimal amount of 100 μg OVA in saline for OVA-immunotherapy. OVA-immunotherapy was either given alone or in combination with 0.01 μg 1α,25(OH)2 VitD3. Sham-immunotherapy alone or in combination with 0.01 μg 1α,25(OH)2 VitD3 served as control groups.
Analysis of the cellular composition of the bronchoalveolar lavage fluid. Bronchoalveolar lavage (BAL) was performed immediately after bleeding of the mice by lavage of the airways through a tracheal cannule five times with 1 ml saline (37° C.). Cells in the BALF were centrifuged and resuspended in cold PBS. The total number of cells in the BAL was determined using a Bürker-Türk counting chamber (Karl Hecht Assistant KG, Sondheim/Röhm, Germany). For differential BAL cell counts, cytospin preparations were made (15×g, five minutes, 4° C., Kendro Heraues Instruments, Asheville, N.C.). Next, cells were fixed and stained with Diff-Quick (Dade A. G., Düdingen, Switzerland). Per cytospin, 200 cells were counted and differentiated into mononuclear cells, eosinophils, and neutrophils by standard morphology and staining characteristics.
Statistical analysis. All data are expressed as mean±standard error of mean (SEM). The airway dose-response curves to methacholine were statistically analyzed by a general linear model of repeated measurements followed by post-hoc comparison between groups. Data were log transformed before analysis to equalize variances in all groups. All other data were analyzed using a Student's t test (2-tailed, homosedastic). Results were considered statistically significant at the p<0.05 level.

[2] = system: OVA-sensitized BALB/c mice; assay: Airway responsiveness to methacholine in vivo (whole-body plethysmography, Penh) in mouse model of allergic asthma; set-up: species or system mouse (BALB/c)
Method: as §1
as §2, with “One group was treated with sham-immunotherapy and combined with co-injection of 0.1 μg 1α,25(OH)2 VitD3. Ten days after treatment, mice were exposed to three OVA inhalation challenges (10 mg/ml in saline) for 20 minutes every third day.” left out
Measurement of airway responsiveness in vivo. Airway responsiveness to methacholine was measured after treatment but before OVA challenge (pre-measurement) and 24 hours after the last OVA challenge. Airway responsiveness was measured in conscious, unrestrained mice using barometric whole-body plethysmography by recording respiratory pressure curves (Buxco, EMKA Technologies, Paris, France) in response to inhaled methacholine (acetyl-β-methylcholine chloride, Sigma-Aldrich). […] Briefly, mice were placed in a whole-body chamber and basal readings were determined for three minutes. Aerosolized saline, followed by doubling concentrations of methacholine (ranging from 3.13-25 mg/ml in saline), were nebulized for three minutes, and readings were determined for three minutes after each nebulization.
Statistical analysis. All data are expressed as mean±standard error of mean (SEM). The airway dose-response curves to methacholine were statistically analyzed by a general linear model of repeated measurements followed by post-hoc comparison between groups. […]

[3] = system: OVA-sensitized BALB/c mice; assay: OVA-specific IgE levels in serum (sandwich ELISA) in mouse model of allergic asthma; type: in vivo, mouse (BALB/c)
Method: as §1, §2
Determination of OVA-specific IgE levels in serum. From each mouse, serum was obtained after treatment but before OVA challenge (pre-measurement) by a small incision in the tail vein. After measurement of airway responsiveness in vivo, mice were sacrificed by i.p. injection of 1 ml 10% urethane in saline and were bled by cardiac puncture. […] Serum levels of OVA-specific IgE were measured by sandwich ELISA as described previously (Deurloo et al., 2001).
Statistical analysis. All data are expressed as mean±standard error of mean (SEM). The airway dose-response curves to methacholine were statistically analyzed by a general linear model of repeated measurements followed by post-hoc comparison between groups. […] All other data were analyzed using a Student's t test (2-tailed, homosedastic). […]

[4] = co-injection of 0.01 μg with OVA-immunotherapy (1 mg OVA), compared to OVA-immunotherapy alone

Molecule	Number of BALF eosinophils after OVA inhalation challenge [1, 4]	Number of BALF eosinophils after OVA inhalation challenge ([1]; first series, co-injection of 0.1 μg with sham-immunotherapy)	Number of BALF eosinophils after OVA inhalation challenge ([1]; second series, co-injection of 0.01 μg with sham-immunotherapy)	Number of BALF eosinophils after OVA inhalation challenge ([1]; second series, co-injection of 0.01 μg with sub-optimal OVA-immunotherapy (100 μg OVA), compared to OVA-immunotherapy alone)	AHR to methacholine after OVA inhalation challenge ([2]; co-injection of 0.1 μg with sham-immunotherapy (saline))	AHR to methacholine after OVA inhalation challenge ([2]; co-injection s.c. of 0.1, 0.03 or 0.01 μg (all doses used) with OVA-immunotherapy (1 mg OVA), compared to OVA-IT alone, P<0.05)	Serum levels of OVA-specific IgE after OVA inhalation challenge [3, 4]	Serum levels of OVA-specific IgE after OVA inhalation challenge ([3]; co-injection of 0.1 μg with sham-immunotherapy, compared to sham-immunotherapy alone)	Number of BALF eosinophils after OVA inhalation challenge ([1]; OVA-immunotherapy alone (1 mg OVA), compared to sham-treated mice)	Number of BALF eosinophils after OVA inhalation challenge ([1]; second series, sub-optimal OVA-immunotherapy alone (100 μg OVA), compared to sham-treated mice)	AHR to methacholine after OVA inhalation challenge ([2]; OVA-immunotherapy alone (3 s.c. injections of 1 mg OVA), compared to sham-treated mice, P<0.05)	Serum levels of OVA-specific IgE after OVA inhalation challenge ([3]; OVA-immunotherapy alone (1 mg OVA), compared to sham-treated OVA-challenged mice)
C=C1/C(=C\C=C2/CCC[C@]3(C)[C@@H]([C@H](C)CCCC(C)(C)O)CC[C@@H]23)C[C@@H](O)C[C@@H]1O [1α,25(OH)2 VitD3, 1α,25-dihydroxyvitamin D3]	significantly increased the reduction of BALF eosinophil numbers	did not significantly affect BAL eosinophil number	did not significantly affect BAL eosinophil number	significantly increased the reduction of BALF eosinophil numbers	did not affect AHR	significantly potentiated the reduction of AHR to methacholine	significantly increased the reduction of serum IgE levels	did not affect serum IgE levels				
OVA-immunotherapy: three s.c. injections of 1 mg (or sub-optimal 100 μg) ovalbumin (OVA, grade V) in pyrogen-free saline on alternate days									significantly reduced	significantly reduced	partially reduced	significantly reduced

— patent publication US20060057154A1, “Compositions for inducing of immunotolerance” (Universiteit Utrecht Holding B.V., priority 2003, published 2006)
